From PubChem BioAssay AID488890 (Southern Research Specialized Biocontainment Screening …, 2010)
pIC50: −log10 of the molar value. Inconclusive results are not listed. Calls of active or inactive are those of the source. How the calls were made is not given here.

What follows are molecules tested on Mycobacterium tuberculosis non-replicating, growth inhibition (assay: growth inhibition of non-replicating M. tuberculosis (AID 488890)).
Molecule `OC(CNCCc1ccc(C(F)(F)F)cc1)COc1cccc2ccccc12` (stereo not drawn) has a pIC50 of 5.04. Work on `O=C1c2cccc3c([N+](=O)[O-])ccc(c23)C(=O)N1c1ccc(Cl)cn1` yielded a pIC50 of 6.16. In the case of `CCc1ccc(OCC(=O)NNC(=O)c2cnccn2)c(Br)c1`, the pIC50 was 5.33. For `COc1ccc2cc(C(=O)C3CCCN(Cc4ccccn4)C3)ccc2c1` (stereo not drawn), the pIC50 was 5.18. For `Cc1nc(C(=O)Nc2ccccc2)sc1C(=O)Nc1ccccc1`, the pIC50 was 5.01. Molecule `Cc1ccccc1-n1nnc2c(=O)oc3ccccc3c21` has a pIC50 of 6.36. In the case of `CN1/C(=C\C=N\NC(=O)c2cccnc2)C(C)(C)c2ccccc21`, the IC50 was 46.5 µM (inactive). With `Cc1ccc(CC(=O)N2CCN(c3ccc([N+](=O)[O-])cc3)CC2)cc1` the IC50 was 16 µM (inactive). `COc1ccc([N+](=O)[O-])c(S(=O)(=O)c2ccc(Cl)cc2)n1` gave a pIC50 of 6.00. `O=C(NCC1CCCCC1)c1ccc([N+](=O)[O-])cc1` showed a pIC50 of 6.21. `CC(=O)N1CCC(=NNC(=O)c2cccs2)CC1` was tested, and the IC50 was 20.7 µM (inactive). `CC(=O)Nc1ccc(OC(=O)c2ccc(Br)c([N+](=O)[O-])c2)cc1` showed a pIC50 of 5.05. For `CCCN1C(=O)SC(CC(=O)Nc2ccccc2)C1=O` (stereo not drawn), the IC50 was 17.5 µM (inactive). For `O=C(Cc1ccc(Cl)cc1)OCC(=O)c1ccc[nH]1`, the pIC50 was 5.25. `O=C(CCSc1ccccn1)c1ccccc1` gave a pIC50 of 5.01. For `O=C(c1ccccc1)C(CN1CCCC1)c1ccccc1` (stereo not drawn), the pIC50 was 5.26. `COc1ccccc1-c1cc(SC)c(C#N)c(=O)o1` was tested, and the IC50 was 14.2 µM (inactive). In the case of `CN1C(=O)/C(=C/c2cccc(Cl)c2)Sc2ccc(C(=O)N3CCCC3)cc21`, the IC50 was 22 µM (inactive). For `Cn1c(=O)c(C(=O)Nc2ccccn2)c(O)c2ccccc21`, the IC50 was 13.2 µM (inactive). `NC1=NC[C@H](Cc2ccc(O)cc2)N1CCc1cccc2ccccc12` showed a pIC50 of 5.09. `COC(=O)c1c(NC(=O)c2ccc([N+](=O)[O-])o2)sc2c1CCN(C(C)C)C2` showed a pIC50 of 6.82. Molecule `Cc1ccc(NC(=O)COc2ccc(-n3ccnc3)cc2)cc1Cl` has a pIC50 of 5.19. `O=C(COc1ccc(Cl)cc1)Nc1ccc(Cl)cn1` was tested, and the pIC50 was 5.18. Work on `CCOC(=O)c1ccc(N=C(CC)c2c(O)n(C)c(=O)n(C)c2=O)cc1` yielded a pIC50 of 5.08. In the case of `CCCOc1ccc(N2CC(C(=O)Nc3ccccc3F)CC2=O)cc1` (stereo not drawn), the IC50 was 15.8 µM (inactive). In the case of `COC(=O)c1ccc(Cn2cc(C(F)(F)F)cc([N+](=O)[O-])c2=O)cc1`, the pIC50 was 5.77. `CCN(Cc1ccccc1)c1ccc(/C=N/N=C(N)N)cc1` showed a pIC50 of 5.24. For `O=S1(=O)C=C(Sc2nc3cc(Cl)ccc3o2)c2ccccc21`, the pIC50 was 6.52. `Cc1ccc(NC(=O)CO/N=C/c2ccc(N(C)C)cc2)cc1` gave a pIC50 of 5.11. With `CCCCCCC1CC(C)(C(=O)CNc2nncs2)OC1=O` (stereo not drawn) the IC50 was 20.3 µM (inactive). `CCCCCCOC(=O)C(C#N)c1nc2ccccc2nc1N1CCN(CC)CC1` (stereo not drawn) was tested, and the IC50 was 13.9 µM (inactive). `Cc1ccc(OCCCCn2ccnc2)c([N+](=O)[O-])c1` was tested, and the IC50 was 28.5 µM (inactive). With `CSc1ccc(NC(=O)Nc2cccn(Cc3ccccc3)c2=O)cc1` the IC50 was 19.4 µM (inactive). In the case of `Cc1ccc(OC(=O)c2ccc(Br)o2)cc1`, the IC50 was 13.6 µM (inactive). For `Cc1ccc(NC(=O)C2COc3ccccc3O2)nc1` (stereo not drawn), the pIC50 was 5.20. In the case of `CCCC(C)C(=O)Nc1ccc(Cl)cn1` (stereo not drawn), the IC50 was 10.3 µM (inactive). With `COC(=O)COc1ccc(S(=O)(=O)N2CCCCCC2)cc1` the pIC50 was 5.38. With `Clc1ccccc1CSc1nnc([C@@H]2CCCN2)o1` the IC50 was 12.2 µM (inactive). `CCOc1ccc(-c2nc3ccccc3c(=O)o2)cc1` showed a pIC50 of 5.20. `CC(C)(C)c1ccc2c(c1)OC(C(=O)N/N=C\c1ccccn1)CO2` (stereo not drawn) showed a pIC50 of 5.32. Work on `Cc1[nH][nH]c(=O)c1C(c1ccc(-c2ccc(F)cc2)o1)c1c(C)[nH][nH]c1=O` yielded a pIC50 of 5.07. `CC(C)(c1ccccc1)c1ccc(OCC(O)CNC2CCN(Cc3ccccc3)CC2)cc1` (stereo not drawn) gave a pIC50 of 5.23. `O=C(COc1ccc(Cl)cc1)Nc1ccc2[nH]ncc2c1` was tested, and the IC50 was 26.5 µM (inactive). Molecule `O=c1c(O)c(-c2cccs2)oc2ccc(Cl)cc12` has a pIC50 of 5.97. `Cc1cc(Cl)ccc1NNC(=O)c1cccs1` was tested, and the IC50 was 14.5 µM (inactive). With `CCOC(=O)Nc1ccc2c(c1)N(C(=O)CCN1CCOCC1)c1ccccc1S2=O` (stereo not drawn) the pIC50 was 5.44. With `CC(C)n1c(=S)[nH]c2ccccc2c1=O` the IC50 was 14.2 µM (inactive). Work on `CC1=NN(C(=O)c2csc(C)c2C)C(O)(C(F)(F)F)C1` (stereo not drawn) yielded a pIC50 of 6.40. In the case of `Clc1ccc2c(N3CCCC3)ccnc2c1`, the IC50 was 16.4 µM (inactive). In the case of `N#CC(C(=O)NCc1ccco1)c1nc2ccccc2nc1N1CCOCC1` (stereo not drawn), the IC50 was 15.9 µM (inactive). In the case of `N=c1n(CCN2CCCCC2)c2ccccc2n1CC(=O)c1ccc(Cl)c(Cl)c1`, the IC50 was 21.5 µM (inactive). For `O=C(Nc1nccs1)c1ccc(-c2ccc(Cl)cc2)o1`, the IC50 was 21.3 µM (inactive). For `C/C(=N\NC(=O)c1cc([N+](=O)[O-])cc([N+](=O)[O-])c1)c1ccco1`, the IC50 was 11.4 µM (inactive). `Cc1[nH]nc2c1C(c1ccc(-c3ccc(Cl)cc3)o1)C(C#N)=C(N)O2` (stereo not drawn) was tested, and the pIC50 was 5.65. Work on `COC(=O)COc1ccc2c(=O)c(Oc3ccccc3)c(C)oc2c1` yielded a pIC50 of 5.77. In the case of `Cc1cc(NC(=O)C2CCCCC2)n(-c2nc3ccccc3[nH]2)n1`, the pIC50 was 5.16. With `CN(C)CCCNc1cc(C(C)(C)C)nc2c(-c3ccc(Cl)cc3)cnn12` the pIC50 was 5.28. In the case of `CC1=NN(C(=O)c2csc(C(C)C)c2)C(O)(C(F)(F)F)C1` (stereo not drawn), the pIC50 was 6.44.
